# Legend:
# [1] = system: H23-KDLKB1 and H23-LKB1 NSCLC cells; experiment: Immunoblot of BiP and CHOP in H23-LKB1 and H23-KDLKB1 cells; type: cell-based, human; conditions: 18 h; or bortezomib (40 nM)
# Experimental: (§1) Cells were washed once with ice-cold PBS and incubated on ice for 30 min with a lysis buffer containing 10 mM Tris-HCl, 150 mM NaCl, 0.1% SDS and 1% IGEPAL (Sigma) to which a protease inhibitor cocktail (Sigma) and two phosphatase cocktails I and II (Sigma) were added immediately before use. Lysates were transferred to tubes and insoluble material was pelleted by centrifugation. For immunoblotting, 50-100 μg of total protein lysates were separated by SDS-PAGE and transferred to nitrocellulose. Blots were blocked in 5% milk/Tris buffered saline/0.1% TWEEN® 20 (polyoxyethylenesorbitan monolaurate) (TBST) and primary antibodies were diluted in 5% Bovine Serum Albumin (Sigma)/TBST and incubated overnight at 4° C. Blots were developed with ECL plus (GE) and visualized on a Kodak Image station.
# [2] = system: H23-KDLKB1 and H23-LKB1 cells; experiment: Clonogenic survival of H23-LKB1 and H23-KDLKB1 cells; type: cell-based, human; conditions: 24 h treatment, colonies after 14 days
# Experimental: (§2) Clonogenic survival assay were performed in 6 well dishes. Briefly, 300-500 cells were plated per well and allowed to attach overnight. Drugs were diluted fresh into media and cells were treated for 24 hours. Drug containing media was removed and replaced with fresh media. After 14 days, cells were fixed in 10% Methanol/10% Acetic Acid and stained with 0.5% crystal violet. After washing in ddH2O, plates were allowed to dry and colonies of 50 cells or more were counted. The surviving fraction was calculated according to methods described by Franken, et al.
# as §2, with “200 of indicated” for “300-500”, “Were indicated cells were pre-treated with 125 ng/ml of cyclohexamide (CHX) for one hour. Indicated drugs” for “Drugs”, “h, at which time the drug” for “hours. Drug”, “Franken” for “Franken,”, “al. [Clonogenic assay of cells in vitro, NAT. PROT. 1 (5) (2006) 2315-2319].” for “al.”
# AMPK, H2009 LA cells = experiment: Immunoblot of BiP and CHOP in H2009 cells with AMPK inhibitor before 2DG; type: cell-based, human; parameters: dose or concentration left out as unconfirmed; conditions: H2009 cells treated with Compound C
# Experimental: Cells were incubated on ice for 30 minutes with a lysis buffer containing 10 mM Tris-HCL, 150 mM NaCl, 0.1% SDS and 1% IGEPAL (Sigma). Immediately before use, a protease inhibitor cocktail (Sigma) and two phosphatase cocktails I and II (Sigma) were added to the lysis buffer. Lysates were transferred to tubes and insoluble material was pelleted by centrifugation. Nuclear protein fractions were isolated using a NE-PER protein extraction kit (ThermoFisher) according to manufacturer's instructions. Protein concentration was determined using the Bio-Rad DC protein kit. For immunoblotting, 50-100 ug of total protein lysates was separated by SDS-PAGE and transferred to nitrocellulose. Blots were blocked in 5% milk/Tris buffered saline/0.1% TWEEN® 20 (polyoxyethylenesorbitan monolaurate) (TBST) and primary antibodies were diluted in 5% Bovine Serum Albumin (Sigma)/TBST and incubated overnight at 4° C. Blots were developed with ECL plus (GE) and visualized on a Kodak Image station.
# [3] = system: H838-KDLKB1 and H838-LKB1 cells; experiment: Immunoblot of ER stress markers in H838-LKB1 and H838-KDLKB1 cells; type: cell-based, human; conditions: 12 h; 2DG 10 mM, Tm 1.25 ug/ml, BFA 30 ng/ml
# Experimental: as §1
# [4] = system: A427-KDLKB1 and A427-LKB1 cells; experiment: ATP measurement/cell viability (CellTiter-Glo), A427; type: cell-based, human; conditions: 48 h; 2DG 10 mM, Tm 1.25 μg/ml, BFA 30 ng/ml; p<0.005
# Experimental: (§3) 500 H838 or A427 cells stably expressing either LKB1 or KDLKB1 were plated in 96 well plates. The following day, cells were dosed with the indicated treatments for 48 h. Cellular ATP levels were assessed using the CellTiter-Glo Luminescent Cell Viability Assay substrate (Promega) according to manufacturer's instructions. Luminescence was read using the DTX 880 Multimode Detector. Cellular ATP/cell viability was calculated relative to vehicle treated control.
# H838-KDLKB1 cells = experiment: Clonogenic survival of H838-LKB1 and H838-KDLKB1 cells; type: cell-based, human; conditions: 24 h; 2DG 10 mM, Tm 1.25 μg/ml, BFA 30 ng/ml
# Experimental: as §2, with “200 of indicated” for “300-500”, “Were indicated cells were pre-treated with 125 ng/ml of cyclohexamide (CHX) for one hour. Indicated drugs” for “Drugs”, “h, at which time the drug” for “hours. Drug”, “Franken” for “Franken,”, “al. [Clonogenic assay of cells in vitro, NAT. PROT. 1 (5) (2006) 2315-2319].” for “al.”
# [5] = system: H838-KDLKB1 and H838-LKB1 cells; experiment: Flow cytometry of ROS levels (CellROX staining); type: cell-based, human; conditions: CellROX FACS, 12 h; 2DG 10 mM, Tm 1.25 μg/ml, BFA 30 ng/ml; baseline difference 1.4-fold
# Experimental: To analyze levels of reactive oxygen species (ROS), 1×10^6 H838-KDLKB1 and H838-LKB1 cells were plated and treated with the indicated drugs. Cells were then stained with 0.5 1M CellRox™ for 30 min at 37° C., collected by trypsinization and washed with PBS. Following fixation with 2% Paraformaldehyde/PBS for 20 min, cells were brought to a final volume of 500 ll in PBS. CellRox™ staining of ROS was assessed using the Accuri C6 Flow Cytometer (BD Biosciences, San Jose, Calif., USA) with the threshold set at 80,000. A total of 30,000 events were collected per sample and ROS staining intensity determined using FCS Express 4 Flow Cytometer software. Background events were gated out using unstained control. Histogram plots were overlaid and histogram subtraction was performed by subtracting the integral of the stained control from the treated sample.
# [6] = system: H838-KDLKB1 and H838-LKB1 cells; experiment: ATP measurement/cell viability (CellTiter-Glo), H838; type: cell-based, human; conditions: 48 h; 2DG 10 mM, Tm 1.25 μg/ml, BFA 30 ng/ml; p<0.005
# Experimental: as §3
# [7] = system: H23-LKB1 and H23-KDLKB1 cells; experiment: Caspase 3/7 activity assay; type: cell-based, human; conditions: 5 ug/ml, 24 hours
# Experimental: H23-LKB1 and H23-KDLKB1 cell were plated as described previously and treated for 24 hours with tunicamycin (5 ug/ml) or vehicle (DMSO). Activity of Caspases 3 and 7 were determined using a Promega Caspase-Glo 3/7 kit and data analyzed as described previously.
# [8] = Chronic dosing tolerability in vivo
molecule,measurement,setting,value
CC(C)C[C@H](NC(=O)[C@H](Cc1ccccc1)NC(=O)c1cnccn1)B(O)O [bortezomib],BiP expression in H23-KDLKB1 compared to H23 cells with reconstituted LKB1,[1],9 fold decrease
same,CHOP expression in H23-KDLKB1 compared to H23 cells with reconstituted LKB1,[1],1.6 fold decrease
same,Clonogenic survival / cytotoxicity in H23-KDLKB1 compared to H23-LKB1,[2],reduced the survival of H23-KDLKB1 cells in a dose dependent manner
Cc1ccc(-c2cc(C(F)(F)F)nn2-c2ccc(S(N)(=O)=O)cc2)cc1 [celecoxib],BiP expression in H23-KDLKB1 compared to H23 cells with reconstituted LKB1,[1],1.6 fold decrease
same,CHOP expression in H23-KDLKB1 compared to H23 cells with reconstituted LKB1,[1],1.3 fold decrease
same,Clonogenic survival / cytotoxicity in H23-KDLKB1 compared to H23-LKB1,[2],reduced the survival of H23-KDLKB1 cells in a dose dependent manner
c1cc(-c2cnn3cc(-c4ccc(OCCN5CCCCC5)cc4)cnc23)ccn1 [compound C],Expression of BiP and CHOP in response to 2DG,"AMPK, H2009 LA cells",prevented expression of both BiP and CHOP
tunicamycin [Tm],Phosphorylated eIF2a in H838-KDLKB1 compared to H838-LKB1 cells,[3],increased levels of phosphorylated eIF2a
same,Cellular ATP in A427-KDLKB1 compared to A427 re-expressing LKB1,[4],reduced ATP
same,Clonogenic cell survival of H838-KDLKB1 cells,H838-KDLKB1 cells,reduced cell survival
same,"ROS levels in H838-KDLKB1, increase in intensity over H838-LKB1",[5],1.67 fold
same,Cellular ATP in H838-KDLKB1 compared to H838 re-expressing LKB1,[6],reduced ATP
same,Activity of Caspases 3 and 7 (apoptosis) in H23-KDLKB1 versus H23-LKB1,[7],increased levels of Caspase activity
same,Tolerability of chronic dosing,[8],poorly tolerated
same,Clonogenic survival / cytotoxicity in H23-KDLKB1 compared to H23-LKB1,[2],increased cytotoxicity

# Source: patent publication US10684290B2, “LKB1 related diagnostics and treatments of cancer” (Dignity Health, priority 2014, dated 2020)
